These compounds were tested against T1, rat NPFF2 receptor (Rattus norvegicus, UniProt Q9EQD2) (assay: Functional assay (agonist potency, intrinsic activity) at cloned rat NPFF2 receptor). Settings: Table 4; percent of maximum response elicited by neuropeptide FF.
T1 construct: The full-length NPFF2 was amplified from rat spinal cord cDNA; expressed in transfected cells; host or cells: not given
Type: cell-based

T1 sequence (Q9EQD2 whole entry): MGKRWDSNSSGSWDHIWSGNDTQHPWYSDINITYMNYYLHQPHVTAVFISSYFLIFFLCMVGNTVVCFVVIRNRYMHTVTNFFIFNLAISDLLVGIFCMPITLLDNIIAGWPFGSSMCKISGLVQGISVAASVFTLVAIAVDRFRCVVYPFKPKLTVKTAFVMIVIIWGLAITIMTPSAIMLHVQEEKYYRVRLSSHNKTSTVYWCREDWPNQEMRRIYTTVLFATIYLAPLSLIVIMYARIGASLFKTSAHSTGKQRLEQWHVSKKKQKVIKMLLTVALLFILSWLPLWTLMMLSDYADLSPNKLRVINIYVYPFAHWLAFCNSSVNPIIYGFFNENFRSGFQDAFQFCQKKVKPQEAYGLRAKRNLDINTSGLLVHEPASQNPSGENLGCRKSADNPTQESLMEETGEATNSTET

| SMILES | Functional Activity rNPFF2 I.A. % [%] |
| --- | --- |
| N=C(N)NCCC[C@H](NS(=O)(=O)c1ccc(F)cc1)C(=O)N[C@@H](Cc1ccccc1)C(N)=O [Compound 1005B] | 46 |
| Cc1ccc(S(=O)(=O)N[C@@H](CCCNC(=N)N)C(=O)N[C@@H](Cc2ccccc2)C(N)=O)cc1 [Compound 1007B] | 55 |
| N=C(N)NCCC[C@H](NS(=O)(=O)c1ccc(Cl)cc1Cl)C(=O)N[C@@H](Cc1ccccc1)C(N)=O [Compound 1010B] | 28 |

Same assay, conditions: Table 7, intrinsic activity

| SMILES | rNPFF2 IA [% NPFF] |
| --- | --- |
| Cc1ccc2nc(NC(=N)N)nc(C)c2c1 [Compound 1002A, N-(4,6-dimethyl-2-quinazolinyl)guanidine] | 24 |
| CCCc1ccc2nc(NC(=N)N)nc(C)c2c1 [Compound 1008A, N-(4-methyl-6-propyl-2-quinazolinyl)guanidine] | 85 |
| Cc1nc(NC(=N)N)nc2ccc(-c3ccccc3)cc12 [Compound 1010A, N-(4-methyl-6-phenyl-2-quinazolinyl)guanidine] | 22 |
| CCCCOc1ccc2nc(NC(=N)N)nc(C)c2c1 [Compound 1012A, N-(6-butoxy-4-methyl-2-quinazolinyl)guanidine] | 80 |
| Cc1nc(NC(=N)N)nc2cc(Br)ccc12 [Compound 1014A, N-(7-bromo-4-methyl-2-quinazolinyl)guanidine] | 47 |
| Cc1cc2nc(NC(=N)N)nc(C)c2cc1C [Compound 1015A, N-(4,6,7-trimethyl-2-quinazolinyl)guanidine] | 56 |
| COc1cc2c(C)nc(NC(=N)N)nc2cc1C [Compound 1016A, N-(6-methoxy-4,7-dimethyl-2-quinazolinyl)guanidine] | 74 |
| Cc1cc2nc(NC(=N)N)nc(C)c2cc1O [Compound 1017A, N-(6-hydroxy-4,7-dimethyl-2-quinazolinyl)guanidine] | 23 |
| Cc1nc(NC(=N)N)nc2cc(F)c(F)cc12 [Compound 1019A, N-(6,7-difluoro-4-methyl-2-quinazolinyl)guanidine] | 31 |
| Cc1nc(NC(=N)N)nc2cc(C(C)C)ccc12 [Compound 1021A, N-(7-isopropyl-4-methyl-2-quinazolinyl)guanidine] | 76 |
| Cc1nc(NC(=N)N)nc2cc(OC(C)C)ccc12 [Compound 1025A, N-[4-methyl-7-(isopropoxy)-2-quinazolinyl]guanidine] | 27 |
| Cc1nc(NC(=N)N)nc2ccc(Br)cc12 [Compound 1026A, N-(6-bromo-4-methyl-2-quinazolinyl)guanidine] | 19 |
| Cc1nc(NC(=N)N)nc2ccc(OCc3ccccc3)cc12 [Compound 1028A, N-[6-(benzyloxy)-4-methyl-2-quinazolinyl]guanidine] | 79 |
| Cc1nc(NC(=N)N)nc2ccc(OC(F)(F)F)cc12 [Compound 1030A, N-[4-methyl-6-(trifluoromethoxy)-2-quinazolinyl]guanidine] | 85 |
| CCCCCOc1ccc2nc(NC(=N)N)nc(C)c2c1 [Compound 1031A, N-[4-methyl-6-(pentyloxy)-2-quinazolinyl]guanidine] | 66 |
| Cc1ccc(Oc2ccc3nc(NC(=N)N)nc(C)c3c2)cc1 [Compound 1033A, N-[4-methyl-6-(4-methylphenoxy)-2-quinazolinyl]guanidine] | 51 |
| Cc1nc(NC(=N)N)nc2cc(C(C)O)ccc12 (stereo not drawn) [Compound 1035A, N-[7-(1-hydroxyethyl)-4-methyl-2-quinazolinyl]guanidine] | 52 |
| Cc1nc(NC(=N)N)nc2cc(OC(F)(F)F)ccc12 [Compound 1036A, N-[4-methyl-7-(trifluoromethoxy)-2-quinazolinyl]guanidine] | 78 |

— patent publication US20030176314A1, “Compounds for the treatment of pain” (priority 2001, published 2003)
